In patent publication US6592834B1, “Calcium hydroxide, a process for the production thereof and use thereof” (Kabushiki Kaisha Kaisui Kagaku Kenkyujo, priority 1999, dated 2003):

Experiment: Thermal stability test of polyvinyl chloride sheet in Geer oven at 185° C. (Example 7 composition)
Description: A heat stabilizer (acid-capturing agent) shown in Table 3 was mixed with the above components other than the heat stabilizer in the above amounts, and the mixture was uniformly mixed. Then, it was kneaded with an open roll for 3 minutes at 180° C., to prepare a sheet having a thickness of about 1 mm. The sheet was placed in a Geer oven set at 185° C., and it was estimated for a thermal stability. […] Concerning properties required for the heat stabilizer, the heat stabilizer was required to be nonpoisonous and a low price, to have good dispersibility, to be almost free from coloration, and to give a long period of time before blackening.
In Example 7, the calcium hydroxide of the present invention as a heat stabilizer was replaced with a calcium hydroxide obtained by surface-treating a commercially available calcium hydroxide used in Comparative Example 1 (5-1), lead stearate (5-2), and A type zeolite (5-3). These cases were estimated.

A type zeolite [5-3]
Thermal stability (period of time taken until the sheet was blackened): 40 min
